Publication PMC5584945, “Evaluation of robenidine analog NCL195 as a novel broad-spectrum antibacterial agent” (PLoS ONE, 2017)
Entries after “also recorded” stand apart in the source; their conditions may differ. Read-outs that look alike come from different tables or passages of the source.

Assays:
[1] = tested on: Enterococcus faecalis ATCC 29212; assay: MIC, broth micro-dilution (CLSI), control strain; assay type: cell-based
Protocol: MICs for NCL812 and its analogs (serial two-fold dilutions commencing at 128 μg/ml) were determined (in duplicate) in round bottom 96-well microtitre trays (Sarstedt 82.1582.001), using the broth micro-dilution method recommended by the Clinical and Laboratory Standards Institute (CLSI). […] MIC50, MIC90 and MIC range for NCL812, NCL195 and NCL219 were calculated against each S. pneumoniae, S. aureus or VRE isolate. To assess the potential activity of NCL195 against Gram-negative bacteria, MICs against Acinetobacter spp, E. coli, K. pneumoniae, P. aeruginosa, Proteus spp and Neisseria meningitidis were performed in the presence or absence of 0.08 mM-20 mM EDTA in a standard checkerboard assay.

S. pneumoniae D39 = assay: Time-dependent killing assay; assay type: cell-based, Streptococcus pneumoniae
Protocol: Time kill assays were performed (in duplicate) essentially as described previously with slight modifications. Briefly, a few colonies of luminescent S. pneumoniae strain D39LUX or luminescent S. aureus ATCC 12600 (Xen29) from an overnight HBA were emulsified in normal saline and adjusted to A600 nm = 0.10 (equivalent to approx. 5 × 10^7 c.f.u. per ml) and the bacterial suspension further diluted 1:20 in saline. […] The compounds were serially diluted in 100% DMSO at 100× the final desired concentration and 100 μl of appropriate concentrations added to each 10 ml preparation. Duplicate cultures were incubated at 37°C (+ 5% CO2 for S. pneumoniae D39), with samples withdrawn at 0, 0.5, 1, 2, 4, 6, 8 and 24 h, serially diluted 10-fold and plated on HBA overnight at 37°C (+ 5% CO2 for S. pneumoniae D39) for bacterial enumeration.

S. aureus ATCC49775 = assay: Membrane potential, DiOC2(3) fluorescence; assay type: cell-based, Staphylococcus aureus; conditions: 16 μg/ml, pre-incubated 5 min; versus untreated and ampicillin
Protocol: To further examine the mechanism underlying the perturbation of the cell membrane of S. pneumoniae or S. aureus by the NCL compounds, the membrane potential of the cells was measured by fluorescence spectrometry using (DiOC2(3), essentially as described previously. Briefly, […] cells from an overnight HBA plate were grown in Todd-Hewitt broth supplemented with 1% yeast extract (THY) at 37°C, 5% CO2 until A600 nm = 0.5. […] The cuvette was then placed in a LS 55 Fluorescence Spectrometer (PerkinElmer) set at Ex. 488 nm/Em. 620 nm, with excitation and emission slit widths at 5 nm and 7 nm, respectively). […] All assays were performed at least twice.

[2] = Microsomal metabolic stability; assay type: in vitro ADME; conditions: for half-life at 0.4 μg/ml: 0.4 μg/ml compound, 0.4 mg/ml protein, NADPH
Protocol: The metabolic stability assay was performed by incubating 0.4 μg/ml of each test compound with human and mouse liver microsomes (Xenotech, Lot# 1210057 and 1310211, respectively) suspended in 0.1 M pH 7.4 phosphate buffer at 37°C and 0.4 mg/ml protein concentration. The metabolic reaction was initiated by the addition of an NADPH-regenerating system (i.e. NADPH is the cofactor required for CYP450-mediated metabolism) and quenched at various time points over a 60 min incubation period by the addition of acetonitrile containing diazepam as internal standard. Control samples (containing no NADPH) were included (and quenched at 2, 30 and 60 min) to monitor for potential degradation in the absence of cofactor. Test compound concentration vs time data were fitted to an exponential decay function to determine the first-order rate constant for substrate depletion. This was used to calculate a degradation half-life (T1/2), in vitro intrinsic clearance (CLINT), microsome-predicted blood clearance (CLblood) and a microsome-predicted hepatic extraction ratio (EH) according to the in vitro half-life method of Obach[53].

[3] = Pharmacokinetics after IV administration; assay type: in vivo, mouse; conditions: for clearance: read-out: Plasma CL; for half-life: read-out: Apparent t½ (converted); for Vd: read-out: Plasma VSS
Protocol: Mice had access to food and water ad libitum throughout the pre- and post-dose sampling period. The Animal Ethics Committee of the Monash Institute of Pharmaceutical Sciences reviewed and approved all animal PK experiments (approval number MIPS.2013.33). The PK studies were conducted in compliance with the Australian Code of Practice for the Care and Use of Animals for Scientific Purposes (7th Edition 2004). […] For both the IV and IP administration, a maximum of two samples were obtained from each mouse, with samples being taken either via submandibular bleed (approximately 120 μl; conscious sampling) or terminal cardiac puncture (0.6 ml; under inhaled Isoflurane anesthesia). No urine samples were collected as mice were housed in bedded cages during the study. […] Mice were humanely sacrificed by cervical dislocation while under anaesthesia (using gaseous isoflurane) at the end of experiments. Blood was collected directly into polypropylene Eppendorf tubes containing heparin as anti-coagulant, and stabilization cocktail (containing Complete (a protease inhibitor cocktail with EDTA) and potassium fluoride) to minimize the potential for ex vivo degradation of the test compounds in blood/plasma samples. Once collected, blood samples were centrifuged immediately, supernatant plasma was removed, and stored at either -80°C (for the IV exposure) or at -20°C (for the IP exposure) until analysis by liquid chromatography-mass spectrometry (LC-MS). Following protein precipitation with acetonitrile, thawed plasma samples were analyzed by LC-MS (Waters Micromass Quattro Premier coupled to a Waters Acquity UPLC) using positive electrospray ionization operating in MRM mode.

[4] = tested on: panel of mammalian cell lines (Caco-2, HEL 299, Hep G2, MDBK, MCF7); assay: In vitro cytotoxicity, WST-1, all cell lines tested; assay type: cell-based; conditions: lower bound over all the cell lines tested
From the text: In order to ensure minimal off target mammalian cell cytotoxicity, we assayed NCL812, NCL195 and NCL219 for in vitro cytotoxicity using a panel of adherent mammalian cell lines: Caco-2 (human colorectal adenocarcinoma cell line), HEL 299 (non-cancerous human lung fibroblast cell line), Hep G2 (human hepatocellular carcinoma cell line), MDBK (normal bovine kidney cell line) and MCF7 (human mammary gland adenocarcinoma cell line). Cell lines were maintained in Dulbecco’s Modified Eagle’s Medium (DMEM; […] After 24 h incubation, media was removed, washed once with medium without antibiotics and fresh medium supplemented with 10% (vol/vol) FBS was added. […] Following exposure for 24 h, WST-1 reagent was added to each well at a final concentration of 10%. […] The IC50 value for each compound against each cell line was determined via non-linear regression (three parameters) using GraphPad Prism v6 software. The robustness of assays was confirmed with selected cell lines (Hep G2 and MDBK) seeded onto a 96–well Microwell Nunclon Delta Surface plate (Thermo Scientific Nunc; Cat No: 136101) at 5 × 10^4 cells per well.

[5] = human, liver microsomes, pH 7.4, read-out: CLINT
[6] = human, hepatic extraction ratio
[7] = liver microsomes, pH 7.4, human
[8] = liver microsomes, pH 7.4, mouse
[9] = mouse, liver microsomes, pH 7.4, read-out: CLINT
[10] = mouse, hepatic extraction ratio
[11] = male, Swiss (outbred), mouse, plasma, iv, 5 mg/kg, male Swiss outbred mice, read-out: AUC0-inf
[12] = male, Swiss (outbred), mouse, plasma, iv, 5 mg/kg, male Swiss outbred mice
[13] = mouse, plasma, male Swiss outbred mice, IV 5 mg/kg
[14] = male Swiss outbred mice, IV 5 mg/kg, 5 mg/kg

| SMILES | MIC ([1]; ATCC29212, absence of FBS) | Time to reduce the population below the limit of detection (S. pneumoniae D39; 4× MIC) | MIC ([1]; ATCC29212, 10% FBS) | Effect on generated membrane potential (S. aureus ATCC49775) | microsomal CLint at 0.4 μg/ml [2, 5] | Predicted EH [2, 6] | Predicted CLblood ([2]; human, microsome-predicted) | half-life at 0.4 μg/ml [2, 7] | half-life at 0.4 μg/ml [2, 8] | microsomal CLint at 0.4 μg/ml [2, 9] | Predicted EH [2, 10] | Predicted CLblood ([2]; mouse, microsome-predicted) | AUC(0-inf) [3, 11] | clearance [3, 12] | half-life [3, 13] | Vd [3, 13] | IC50 [4] | other results |
| --- | --- | --- | --- | --- | --- | --- | --- | --- | --- | --- | --- | --- | --- | --- | --- | --- | --- | --- |
| CC1(C)S[C@@H]2[C@H](NC(=O)[C@H](N)c3ccccc3)C(=O)N2[C@H]1C(=O)O [Ampicillin] | 2 µg/mL | 8 h |  |  |  |  |  |  |  |  |  |  |  |  |  |  |  |  |
| CCCCCCCCCC(=O)N[C@@H](Cc1c[nH]c2ccccc12)C(=O)N[C@H](CC(N)=O)C(=O)N[C@@H](CC(=O)O)C(=O)N[C@@H]1C(=O)NCC(=O)N[C@@H](CCCN)C(=O)N[C@@H](CC(=O)O)C(=O)N[C@H](C)C(=O)N[C@@H](CC(=O)O)C(=O)NCC(=O)N[C@H](CO)C(=O)N[C@@H]([C@H](C)CC(=O)O)C(=O)N[C@@H](CC(=O)c2ccccc2N)C(=O)O[C@@H]1C [Daptomycin, daptomycin] | 2 µg/mL |  | 2 µg/mL |  |  |  |  |  |  |  |  |  |  |  |  |  |  |  |
| Cc1ccc(/C=N/Nc2cc(N/N=C/c3ccc(C)cc3)nc(N)n2)cc1 [NCL195, 4,6-bis(2-((E)-4-methylbenzylidene)hydrazinyl)pyrimidin-2-amine] | 4 µg/mL | 4 h | 32 µg/mL | large reduction in the magnitude of the generated membrane potential | < 7 µL/min/mg | <0.22 | <5 mL/min/kg | > 4.12 h | > 4.12 h | < 7 µL/min/mg | <0.13 | <16 mL/min/kg | 12.5 µM·h | 16.3 mL/min/kg | 2.4 h | 2.6 L/kg | > 10 µg/mL | Time to reduce the population below the limit of detection (S. pneumoniae D39; 2× MIC): 6 h |
| C/C(=N\NC(=N)N/N=C(\C)c1ccc(C(C)(C)C)cc1)c1ccc(C(C)(C)C)cc1 [NCL219, (E)-N'-((E)-1-(4-(tert-butyl)phenyl)ethylidene)-2-(1-(4-(tert-butyl)phenyl)ethylidene)hydrazine-1-carboximidhydrazide] | 2 µg/mL |  | 8 µg/mL | large reduction in the magnitude of the generated membrane potential | 94 µL/min/mg | 0.79 | 16 mL/min/kg | 0.3 h | 0.233 h | 121 µL/min/mg | 0.72 | 87 mL/min/kg |  |  |  |  | > 7 µg/mL |  |
| Cl.N=C(NN=Cc1ccc(Cl)cc1)NN=Cc1ccc(Cl)cc1 [NCL812, 2,2'-bis[(4-chlorophenyl)methylene] carbonimidic dihydrazide hydrochloride] | 4 µg/mL |  | 32 µg/mL | large reduction in the magnitude of the generated membrane potential |  |  |  |  |  |  |  |  | 27.9 µM·h | 9.5 mL/min/kg | ~8.2 h | ~5.9 L/kg | > 4 µg/mL | Predicted CLblood ([2]; human, 0.4 μg/ml, pH 7.4): <5 mL/min/kg; microsomal CLint at 0.4 μg/ml ([2]; human, microsomes, pH 7.4): < 7 µL/min/mg; half-life at 0.4 μg/ml ([2]; microsomes, pH 7.4, human): > 4.12 h; half-life at 0.4 μg/ml ([2]; microsomes, pH 7.4, mouse): > 4.12 h; Predicted CLblood ([2]; mouse, 0.4 μg/ml, pH 7.4): <16 mL/min/kg; Predicted EH ([2]; mouse, 0.4 μg/ml, pH 7.4): <0.13; microsomal CLint at 0.4 μg/ml ([2]; mouse, microsomes, pH 7.4): < 7 µL/min/mg; AUC(0-inf) [3, 14]: ~27.9^ a h*μM; Plasma CL [3, 14]: ~9.5^ a mL/min/kg; Adverse signs after parenteral (IV) administration ([3]; mice, IV 5 mg/kg, 5 mg/kg): adverse neurological signs; also recorded: adverse clinical signs |
